Key:
Alpha-glucosidase [1] = target: T1, Alpha-glucosidase (Saccharomyces cerevisiae S288c, UniProt P53341+P38158+P07265); assay: Inhibition of Saccharomyces cerevisiae alpha-glucosidase using maltose as substrate incubated for 30 mins by spectrophotometric assay; assay type: protein assay
Alpha-glucosidase [2] = target: T1, Alpha-glucosidase; assay: Inhibition of Saccharomyces cerevisiae alpha-glucosidase using PNPG as substrate incubated for 30 mins by spectrophotometric assay; assay type: protein assay
Alpha-glucosidase [3] = target: T1, Alpha-glucosidase; assay: Inhibition of Saccharomyces cerevisiae alpha-glucosidase assessed as release of p-nitrophenol using pNPG as substrate preincubated for 15 mins followed by substrate addition and measured after 5 mins by spectrophotometric assay; assay type: protein assay
Alpha-glucosidase [4] = target: T1, Alpha-glucosidase; assay: Inhibition of Saccharomyces cerevisiae alpha-glucosidase using pNPG as preincubated for 15 mins followed by substrate addition and measured after 30 mins by spectroscopic analysis

| Compound | IC50 (Alpha-glucosidase [1]) | IC50 (Alpha-glucosidase [2]) | IC50 (Alpha-glucosidase [4]) | also measured |
| --- | --- | --- | --- | --- |
| C=C(C)/C=C/[C@]1(C)C=CC2=C(O1)C(CC=C(C)C)=C1O[C@]34C(C(=O)[C@@H]1C2O)[C@@H](OCC)[C@@H]1C[C@H]3C(C)(C)O[C@@]4(C/C=C(\C)C(=O)O)C1=O (stereo not given in full) |  |  |  | IC50 (Alpha-glucosidase [3]): 111.8 µM |
| C=C(C)/C=C/[C@]1(C)C=CC2=C(O1)C(CC=C(C)C)=C1O[C@]34C(=C[C@@H]5C[C@H]3C(C)(C)O[C@@]4(CC=C(C)C)C5=O)C(=O)[C@@H]1C2O (stereo not given in full) |  |  |  | IC50 (Alpha-glucosidase [3]): 209.2 µM |
| COc1cc(O[C@H]2O[C@@H](CO[C@H]3OC[C@@H](O)[C@H](O)[C@H]3O)[C@H](O)[C@H](O)[C@@H]2O)c2c(=O)c3c(O)ccc(OC)c3oc2c1OC |  |  | 142 µM |  |
| CO[C@@H]1C2C(=O)[C@H]3C(=C(CC=C(C)C)C4=C(C=CC(C)O4)C3O)O[C@@]23[C@H]2C[C@@H]1C(=O)[C@]3(C/C=C(\C)C(=O)O)OC2(C)C (stereo not given in full) |  |  |  | IC50 (Alpha-glucosidase [3]): 136.35 µM |
| CC(C)=CCC/C(C)=C/Cc1c(C)c(CC=C(C)C)c2c(c1O)C(=O)C1=C[C@@H]3C[C@H]4C(C)(C)O[C@@](CC=C(C)C)(C3=O)[C@@]14O2 |  |  |  | IC50 (Alpha-glucosidase [3]): > 300 µM |
| COc1c(OC)c(O)c2c(=O)c3c(O[C@H]4O[C@@H](CO[C@H]5OC[C@@H](O)[C@H](O)[C@H]5O)[C@H](O)[C@H](O)[C@@H]4O)ccc(OC)c3oc2c1OC |  |  | > 1000 µM |  |
| COc1cc(O)c2c(=O)c3c(O[C@@H]4O[C@H](CO)[C@@H](O)[C@H](O)[C@H]4O)ccc(O)c3oc2c1 [SWERTIANOLIN] |  |  | 389 µM |  |
| COc1ccc(O)c2c(=O)c3c(O)cc(O[C@H]4O[C@@H](CO)[C@H](O)[C@H](O)[C@@H]4O)cc3oc12 |  |  | > 1000 µM |  |
| COc1c(OC)c(O[C@H]2O[C@@H](CO[C@H]3OC[C@@H](O)[C@H](O)[C@H]3O)[C@H](O)[C@H](O)[C@@H]2O)c2c(=O)c3c(O)ccc(OC)c3oc2c1OC |  |  | 442 µM |  |
| C=C(C)/C=C/c1ccc2oc3c(O)cc(OC)c(CC=O)c3c(=O)c2c1O | > 200 µM | 63.5 µM |  |  |
| C=C(C)/C=C/c1c(OC)cc2c(c1O)Cc1cccc(O)c1O2 | > 200 µM | 58.5 µM |  |  |
| O=c1c2c(O)cc(O)cc2oc2c(O)ccc(O[C@@H]3O[C@H](CO)[C@@H](O)[C@H](O)[C@H]3O)c12 [NORSWERTIANOLIN] |  |  | 679 µM |  |
| COc1cc(O)c2c(=O)c3c(O[C@H]4O[C@@H](CO[C@H]5OC[C@@H](O)[C@H](O)[C@H]5O)[C@H](O)[C@H](O)[C@@H]4O)ccc(OC)c3oc2c1OC |  |  | 136 µM |  |
| COc1ccc(O)c2c(=O)c3c(O[C@H]4O[C@@H](CO)[C@H](O)[C@H](O)[C@@H]4O)cc(O)c(OC)c3oc12 |  |  | 578 µM |  |
| C=C(C)/C=C/c1c(OC)cc2c(c1O)Cc1c(O)ccc(O)c1O2 | > 200 µM | 50.5 µM |  |  |

Continued, in another order:

| IC50 (Alpha-glucosidase [1]) | IC50 (Alpha-glucosidase [2]) | IC50 (Alpha-glucosidase [4]) | Compound | also measured |
| --- | --- | --- | --- | --- |
| 155.6 µM | 31.7 µM |  | C=C(C)/C=C/c1c(OC)c(O)cc2oc3cc4c(c(O)c3c(=O)c12)C=C(O)C(C)(C)O4 |  |
|  |  | 258 µM | COc1ccc(O)c2c(=O)c3c(O[C@H]4O[C@@H](CO)[C@H](O[C@H]5O[C@@H](CO)[C@H](O)[C@H](O)[C@@H]5O)[C@H](O)[C@@H]4O)cc(O)c(OC)c3oc12 |  |
| 92.2 µM | 34.2 µM |  | C=C(C)/C=C/c1c(OC)c(O)cc2oc3cc4c(c(O)c3c(=O)c12)C=CC(C)(C)O4 |  |
|  |  | > 1000 µM | COc1cccc2c(=O)c3c(O)cc(O[C@H]4O[C@@H](CO)[C@H](O)[C@H](O)[C@@H]4O)c(OC)c3oc12 |  |
|  |  | 478 µM | COc1ccc(O)c2c(=O)c3c(O[C@H]4O[C@@H](CO[C@@H]5O[C@@H](CO)[C@H](O)[C@H](O)[C@@H]5O)[C@H](O)[C@H](O)[C@@H]4O)cc(O)c(OC)c3oc12 |  |
| 140.2 µM | 29.9 µM |  | C=C(C)/C=C/c1c(O)cc2oc3cc(O)c(OC)c(CCC(C)(C)O)c3c(=O)c2c1O |  |
| > 200 µM | 45 µM |  | C=C(C)C1Cc2c(c(O)cc3oc4cc(O)c(CC=C(C)C)c(O)c4c(=O)c23)O1 (stereo not given) [MANGOSTENONE G] |  |
|  |  | 417 µM | COc1ccc(O)c2c(=O)c3c(O[C@H]4O[C@@H](CO[C@H]5OC[C@@H](O)[C@H](O)[C@H]5O)[C@H](O)[C@H](O)[C@@H]4O)cc(O)c(OC)c3oc12 |  |
